Results as given in US9770023B2, “Active compound combinations comprising phenylamidine compounds and further fungicides” (BAYER CROPSCIENCE AKTIENGESELLSCHAFT, priority 2014, dated 2017).

Experiments:
Alternaria solani = test: in vivo preventive test on Alternaria test (tomatoes)
Experimental: [table] To produce a suitable preparation of active compound, 1 part by weight of active compound is mixed with the stated amounts of solvent and emulsifier, and the concentrate is diluted with water to the desired concentration. To test for preventive activity, young plants are sprayed with the preparation of active compound at the stated rate of application. After the spray coating has dried on, the plants are inoculated with an aqueous spore suspension of Alternaria solani. The plants are then placed in an incubation cabinet at approximately 20° C. and a relative atmospheric humidity of 100%. The test is evaluated 3 days after the inoculation. 0% means an efficacy which corresponds to that of the untreated control while an efficacy of 100% means that no disease is observed.

Puccinia triticina = test: in vivo preventive Puccinia triticina test (wheat); details: Table E1, 8 days after inoculation
Experimental: To produce a suitable preparation of active compound, 1 part by weight of active compound or active compound combination is mixed with the stated amounts of solvent and emulsifier, and the concentrate is diluted with water to the desired concentration.
To test for preventive activity, young plants are sprayed with the preparation of active compound or active compound combination at the stated rate of application. After the spray coating has been dried, the plants are sprayed with a spore suspension of Puccinia triticina. The plants remain for 48 hours in an incubation cabinet at approximately 20° C. and a relative atmospheric humidity of approximately 100%. The plants are placed in the greenhouse at a temperature of approximately 20° C. and a relative atmospheric humidity of approximately 80%.
The test is evaluated 8 days after the inoculation. 0% means an efficacy which corresponds to that of the untreated control, while an efficacy of 100% means that no disease is observed.

Pyrenophora teres = test: in vivo preventive Pyrenophora teres test (barley); details: Table F1, 8 days after inoculation
Experimental: (§1) [table] To produce a suitable preparation of active compound, 1 part by weight of active compound or active compound combination is mixed with the stated amounts of solvent and emulsifier, and the concentrate is diluted with water to the desired concentration. To test for preventive activity, young plants are sprayed with the preparation of active compound or active compound combination at the stated rate of application. After the spray coating has been dried, the plants are sprayed with a spore suspension of Pyrenophora teres. The plants remain for 48 hours in an incubation cabinet at approximately 20° C. and a relative atmospheric humidity of approximately 100%. The plants are placed in the greenhouse at a temperature of approximately 20° C. and a relative atmospheric humidity of approximately 80%. The test is evaluated 8 days after the inoculation. 0% means an efficacy which corresponds to that of the untreated control, while an efficacy of 100% means that no disease is observed.

[1] = tested on: Blumeria graminis f.sp. hordei; test: in vivo preventive Blumeria test (barley)
Experimental: [table] To produce a suitable preparation of active compound, 1 part by weight of active compound or active compound combination is mixed with the stated amounts of solvent and emulsifier, and the concentrate is diluted with water to the desired concentration. To test for preventive activity, young plants are sprayed with the preparation of active compound or active compound combination at the stated rate of application. After the spray coating has been dried, the plants are dusted with spores of Blumeria graminis f.sp. hordei. The plants are placed in the greenhouse at a temperature of approximately 18° C. and a relative atmospheric humidity of approximately 80% to promote the development of mildew pustules. The test is evaluated 7 days after the inoculation. 0% means an efficacy which corresponds to that of the untreated control, while an efficacy of 100% means that no disease is observed.

Phakopsora pachyrhizi = test: in vivo preventive test on Phakopsora test (soybeans)
Experimental: To produce a suitable preparation of active compound, 1 part by weight of active compound is mixed with the stated amounts of solvent and emulsifier, and the concentrate is diluted with water to the desired concentration. To test for preventive activity, young plants are sprayed with the preparation of active compound at the stated rate of application. After the spray coating has dried on, the plants are inoculated with an aqueous spore suspension of the causal agent of soybean rust (Phakopsora pachyrhizi) and stay for 24 h without light in an incubation cabinet at approximately 24° C. and a relative atmospheric humidity of 95%. The plants remain in the incubation cabinet at approximately 24° C. and a relative atmospheric humidity of approximately 80% and a day/night interval of 12 h.
The test is evaluated 7 days after the inoculation. 0% means an efficacy which corresponds to that of the untreated control, while an efficacy of 100% means that no disease is observed.

Septoria tritici = test: in vivo preventive Septoria tritici test (wheat)
Experimental: as §1, with “suspension of Septoria tritici. The plants” for “suspension of Pyrenophora teres. The plants”, “of approximately 100% and afterwards for 60 hours at approximately 15° C. in a translucent incubation cabinet at a relative atmospheric humidity of approximately 100%. The” for “of approximately 100%. The”, “of approximately 15° C. and” for “of approximately 20° C. and”, “is evaluated 21 days after” for “is evaluated 8 days after”

Leptosphaeria nodorum = test: in vivo preventive Leptosphaeria nodorum test (wheat); details: Table C1, 8 days after inoculation
Experimental: as §1, with “suspension of Leptosphaeria nodorum. The plants” for “suspension of Pyrenophora teres. The plants”, “of approximately 25° C. and” for “of approximately 20° C. and”

[2] = Table D2, 7 days after inoculation, 0.5 ppm a.i.
[3] = Table D2, 7 days after inoculation, 1 ppm a.i.
[4] = Table G2, 21 days after inoculation, 40 ppm a.i.
[5] = Table A2, 3 days after inoculation, 2 ppm a.i.
[6] = Table A2, 3 days after inoculation, 4 ppm a.i.
[7] = Table B2, 7 days after inoculation, 10 ppm a.i.
[8] = Table B2, 7 days after inoculation, 40 ppm a.i.
[9] = Table D3, 7 days after inoculation, 2 ppm a.i.
[10] = Table G1, 21 days after inoculation, 20 ppm a.i.
[11] = Table A1, 3 days after inoculation, 1 ppm a.i.
[12] = Table D3, 7 days after inoculation, 10 ppm a.i.

With Cn1cc(C(=O)Nc2cccc3c2[C@@H]2CC[C@H]3C2=C(Cl)Cl)c(C(F)F)n1 (racemic) [(B.6), benzovindiflupyr] the “Efficacy in % found” value (Alternaria solani; Table A2, 3 days after inoculation, 0.5 ppm a.i.) was 22%, the “Efficacy in % found” value (Puccinia triticina; 40 ppm a.i.) was 86% and the “Efficacy in % found” value (Pyrenophora teres; 80 ppm a.i.) was 57%. The “Efficacy in % found” value ([1]; Table B1, 7 days after inoculation, 40 ppm a.i.) was 11%, the “Efficacy in % found” value (Phakopsora pachyrhizi; Table D2, 7 days after inoculation, 0.25 ppm a.i.) was 8% and the “Efficacy in % found” value (Phakopsora pachyrhizi; [2]) was 8%. The “Efficacy in % found” value (Phakopsora pachyrhizi; [3]) was 15% and the “Efficacy in % found” value (Septoria tritici; [4]) was 38%.
For OC(Cc1ccccc1Cl)(Cn1nc[nH]c1=S)C1(Cl)CC1 (centres unmarked) [(A.3), prothioconazole], the “Efficacy in % found” value (Alternaria solani; [5]) was 0%, the “Efficacy in % found” value (Alternaria solani; [6]) was 24% and the “Efficacy in % found” value [1, 7] was 22%. The “Efficacy in % found” value [1, 8] was 22%, the “Efficacy in % found” value (Phakopsora pachyrhizi; Table D3, 7 days after inoculation, 1 ppm a.i.) was 0% and the “Efficacy in % found” value (Phakopsora pachyrhizi; [9]) was 35%. For the same compound, the “Efficacy in % found” value (Septoria tritici; [10]) was 0%.
For CC(C)(C)C(O)(CCc1ccc(Cl)cc1)Cn1cncn1 (centres unmarked) [(A.4), tebuconazole], the “Efficacy in % found” value (Alternaria solani; [11]) was 0%, the “Efficacy in % found” value (Phakopsora pachyrhizi; Table D1, 7 days after inoculation, 0.1 ppm a.i.) was 0% and the “Efficacy in % found” value (Phakopsora pachyrhizi; Table D1, 7 days after inoculation, 0.2 ppm a.i.) was 30%.
For Cn1cc(C(=O)Nc2ccc(F)cc2-c2ccc(Cl)c(Cl)c2)c(C(F)F)n1 [(B.1), bixafen], the “Efficacy in % found” value (Alternaria solani; [11]) was 40%, the “Efficacy in % found” value [1, 8] was 0% and the “Efficacy in % found” value (Phakopsora pachyrhizi; Table D1, 7 days after inoculation, 10 ppm a.i.) was 0%. The “Efficacy in % found” value (Phakopsora pachyrhizi; [12]) was 0%, the “Efficacy in % found” value (Leptosphaeria nodorum; 80 ppm a.i.) was 0% and the “Efficacy in % found” value (Septoria tritici; [4]) was 0%.
For O=C(NCCc1ncc(C(F)(F)F)cc1Cl)c1ccccc1C(F)(F)F [(B.2), fluopyram], the “Efficacy in % found” value (Alternaria solani; [5]) was 30% and the “Efficacy in % found” value [1, 8] was 11%.
For Cn1cc(C(=O)Nc2ccccc2-c2cc(F)c(F)c(F)c2)c(C(F)F)n1 [(B.3), fluxapyroxad], the “Efficacy in % found” value (Leptosphaeria nodorum; 40 ppm a.i.) was 14% and the “Efficacy in % found” value (Septoria tritici; [4]) was 13%.
With CC(C)c1ccc(Cl)cc1CN(C(=O)c1c(C(F)F)nn(C)c1F)C1CC1 [(B.8), N-(5-chloro-2-isopropylbenzyl)-N-cyclopropyl-3-(difluoromethyl)-5-fluoro-1-methyl-1H-pyrazole-4-carboxamide] the “Efficacy in % found” value (Alternaria solani; [11]) was 45%, the “Efficacy in % found” value (Phakopsora pachyrhizi; Table D1, 7 days after inoculation, 20 ppm a.i.) was 0% and the “Efficacy in % found” value (Phakopsora pachyrhizi; [12]) was 0%. For the same compound, the “Efficacy in % found” value (Leptosphaeria nodorum; 20 ppm a.i.) was 0% and the “Efficacy in % found” value (Septoria tritici; [10]) was 29%.
For CO/C=C(/C(=O)OC)c1ccccc1Oc1cc(Oc2ccccc2C#N)ncn1 [(C.1), azoxystrobin], the “Efficacy in % found” value (Alternaria solani; Table A2, 3 days after inoculation, 1 ppm a.i.) was 46%, the “Efficacy in % found” value (Puccinia triticina; 10 ppm a.i.) was 71% and the “Efficacy in % found” value (Pyrenophora teres; 20 ppm a.i.) was 71%. The “Efficacy in % found” value (Phakopsora pachyrhizi; [2]) was 20%, the “Efficacy in % found” value (Phakopsora pachyrhizi; [3]) was 68% and the “Efficacy in % found” value (Phakopsora pachyrhizi; Table D3, 7 days after inoculation, 0.5 ppm a.i.) was 23%. The “Efficacy in % found” value (Septoria tritici; Table G2, 21 days after inoculation, 10 ppm a.i.) was 0%.
For CO/C=C(/C(=O)OC)c1ccccc1COc1cccc(C(F)(F)F)n1 [(C.2), picoxystrobin], the “Efficacy in % found” value ([1]; Table B1, 7 days after inoculation, 20 ppm a.i.) was 44% and the “Efficacy in % found” value (Phakopsora pachyrhizi; Table D2, 7 days after inoculation, 2 ppm a.i.) was 30%.
COC(=O)N(OC)c1ccccc1COc1ccn(-c2ccc(Cl)cc2)n1 [(C.3), pyraclostrobin] was tested, and the “Efficacy in % found” value (Leptosphaeria nodorum; 40 ppm a.i.) was 57% and the “Efficacy in % found” value (Septoria tritici; [4]) was 88%.
CON=C(C(=O)OC)c1ccccc1CON=C(C)c1cccc(C(F)(F)F)c1 [(C.4), trifloxystrobin] was tested, and the “Efficacy in % found” value (Alternaria solani; [11]) was 30%, the “Efficacy in % found” value (Alternaria solani; [6]) was 73% and the “Efficacy in % found” value [1, 7] was 11%. For the same compound, the “Efficacy in % found” value (Phakopsora pachyrhizi; [9]) was 0%, the “Efficacy in % found” value (Leptosphaeria nodorum; 40 ppm a.i.) was 14% and the “Efficacy in % found” value (Septoria tritici; Table G2, 21 days after inoculation, 20 ppm a.i.) was 75%.
